This assay has as its target T1, TEAD3 (Homo sapiens, UniProt Q99594).
T1 construct: with YAP peptide (amino acids 50–100)
The assay can be described thus: TEAD3–YAP TR-FRET with purified protein (IC50); lipid displacement TR-FRET. In kind it is binding.

Each structure is given as a SMILES string.

By IC50 is commonly meant the concentration that inhibits the measured activity by half. A higher IC50 goes with a need for much substance.

T1 sequence (Q99594 216-435): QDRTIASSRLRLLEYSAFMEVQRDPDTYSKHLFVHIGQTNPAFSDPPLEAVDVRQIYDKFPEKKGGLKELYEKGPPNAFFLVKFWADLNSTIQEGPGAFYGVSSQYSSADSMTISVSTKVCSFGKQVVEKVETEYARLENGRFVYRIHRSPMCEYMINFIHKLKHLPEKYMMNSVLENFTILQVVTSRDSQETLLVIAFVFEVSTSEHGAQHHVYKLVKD
T1 sequence (P46937 50-100 partner): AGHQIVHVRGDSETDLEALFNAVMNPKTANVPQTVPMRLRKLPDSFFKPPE

Regarding `CCOC(=O)c1cnn2c(=O)cc(-c3ccc(C(F)(F)F)cc3)[nH]c12` [compound 1], the IC50 was 1400 nM.

Source of the values: article PMC10293011, “An allosteric pan-TEAD inhibitor blocks oncogenic YAP/TAZ signaling and overcomes KRAS G12C inhibitor resistance” (Nature Cancer, 2023).
